Structures can show the parent of a compound that is named as a salt.

The first assay concerns the target T1, Lats1 (Homo sapiens, UniProt O95835).
T1 construct: purchased Carna 01-123
T1 sequence (O95835 1-1130): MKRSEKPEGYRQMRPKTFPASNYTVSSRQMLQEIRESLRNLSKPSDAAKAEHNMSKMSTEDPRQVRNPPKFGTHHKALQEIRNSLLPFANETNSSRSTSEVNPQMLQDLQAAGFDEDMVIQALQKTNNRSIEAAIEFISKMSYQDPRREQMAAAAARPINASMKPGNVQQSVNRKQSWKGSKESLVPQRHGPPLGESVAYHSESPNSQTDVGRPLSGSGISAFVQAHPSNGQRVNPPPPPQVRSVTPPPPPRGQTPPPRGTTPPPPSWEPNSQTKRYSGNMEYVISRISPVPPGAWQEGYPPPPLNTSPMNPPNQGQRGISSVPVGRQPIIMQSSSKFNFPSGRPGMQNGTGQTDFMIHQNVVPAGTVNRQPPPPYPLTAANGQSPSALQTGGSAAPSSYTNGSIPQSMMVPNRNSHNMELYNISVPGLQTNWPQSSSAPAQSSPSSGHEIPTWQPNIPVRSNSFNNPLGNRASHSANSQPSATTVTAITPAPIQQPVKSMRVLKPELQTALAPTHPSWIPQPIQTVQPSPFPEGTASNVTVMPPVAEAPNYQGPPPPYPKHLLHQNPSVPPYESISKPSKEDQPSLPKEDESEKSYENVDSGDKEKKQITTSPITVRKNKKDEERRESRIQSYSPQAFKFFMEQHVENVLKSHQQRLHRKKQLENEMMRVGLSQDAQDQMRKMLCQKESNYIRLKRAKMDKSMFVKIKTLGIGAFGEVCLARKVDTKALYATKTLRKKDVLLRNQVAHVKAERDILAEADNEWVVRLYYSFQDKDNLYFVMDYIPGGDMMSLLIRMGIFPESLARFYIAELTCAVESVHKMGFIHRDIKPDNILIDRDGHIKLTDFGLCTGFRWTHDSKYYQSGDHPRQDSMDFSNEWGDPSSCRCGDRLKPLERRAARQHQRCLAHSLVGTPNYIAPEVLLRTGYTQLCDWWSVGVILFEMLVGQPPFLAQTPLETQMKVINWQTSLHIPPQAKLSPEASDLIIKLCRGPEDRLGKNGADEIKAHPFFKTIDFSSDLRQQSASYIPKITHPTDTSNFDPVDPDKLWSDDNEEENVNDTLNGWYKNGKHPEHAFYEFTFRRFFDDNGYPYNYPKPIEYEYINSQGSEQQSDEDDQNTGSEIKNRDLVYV
Put plainly: In vitro kinase assay (HTRF KinEASE-STK S1) Lats1, 10 uM ATP. The assay is classed as biochemical. Conditions: 10 uM ATP; read-out: LATS1_HTRF_10 uM ATP IC50. How it is done: IVKA assay at 10 uM method:
(§1) Reactions were conducted with 10 μM STK1 substrate and 10 μM ATP or 2 mM ATP as shown below. […] The enzyme, substrate, ATP, and test compound of the invention were combined in a low-volume 384-well plate and shaken for 50 min at room temperature, unless otherwise indicated. The reaction was stopped by adding the detection reagents, which were prepared at an 8:1 biotin:streptavidin ratio and shaking for 60 min at room temperature. All reactions were conducted in triplicate and a Synergy NEO (Biotek) was used to detect the signal.
For orientation: In TR-FRET formats the signal depends on donor and acceptor labels being close together.
For the compound `Cc1ccc2c(C(=O)/N=c3\sccn3Cc3ccccc3)c[nH]c2n1` [T02], the IC50 – broadly, the concentration that inhibits the measured activity by half – was determined as 5840 nM. Turning to `Cc1cnc2[nH]cc(C(=O)/N=c3\sccn3Cc3ccccc3)c2c1` [T03], the IC50 stood at 148 nM. On the same count and under the same terms, as for `Cc1[nH]c2ncccc2c1C(=O)/N=c1\sccn1Cc1ccccc1` [T04], the figure is 159 nM; as for `O=C(/N=c1\sccn1Cc1ccccc1)c1c[nH]c2ncc(Cl)cc12` [T06], 92.2 nM; as for `Cc1cn(Cc2ccccc2)/c(=N/C(=O)c2c[nH]c3ncccc23)s1` [T26], 74.5 nM. As for `COC(=O)c1cccc(Cn2ccs/c2=N\C(=O)c2c[nH]c3ncccc23)c1` [T33], the IC50 amounted to 224 nM. The same measure, in the same setting: as for `O=C(O)c1cccc(Cn2ccs/c2=N\C(=O)c2c[nH]c3ncccc23)c1` [T34], the figure is 6250 nM.

The next assay has as its target T1, Lats1. Briefly: In vitro kinase assay (HTRF KinEASE-STK S1) Lats1, 2 mM ATP.
Settings: not given
The assay is classed as biochemical. How it is done: as §1
Assay was carried out in a 384 well plate. Each drug dosage curve was done with 16 points of 3-fold dilutions in 100% DMSO, and triplicate.
For the compound `Cc1ccccc1-n1ccs/c1=N\C(=O)c1c[nH]c2ncccc12` [T19], the IC50 came out at 0.3 nM. On the same count and under the same terms, the same measure for `COc1ccc(-n2ccs/c2=N\C(=O)c2c[nH]c3ncccc23)cc1` [T24]: 112 nM; for `O=C(/N=c1\sccn1-c1ccc(Cl)cc1)c1c[nH]c2ncccc12` [T27]: 44.9 nM; for `O=C(/N=c1\sccn1-c1ccccc1Br)c1c[nH]c2ncccc12` [T29]: 20.5 nM.

Turning to `O=C(/N=c1\sccn1-c1ccccn1)c1c[nH]c2ncccc12` [T30], the IC50 is 279 nM.

Consider `O=C(/N=c1\sccn1-c1cccnc1)c1c[nH]c2ncccc12` [T31], for which the IC50 turned out to be 3800 nM.

With `NCc1ccccc1-n1ccs/c1=N\C(=O)c1c[nH]c2ncccc12` [T32], the IC50 was 43 nM.

Turning to `Nc1cc(-n2ccs/c2=N\C(=O)c2c[nH]c3ncccc23)ccn1` [T35], the IC50 was found to be 329 nM.

`O=C(/N=c1\sccn1-c1ccc(CO)cc1)c1c[nH]c2ncccc12` [T36]: the IC50 came to 60 nM. For `O=C(O)CCn1ccs/c1=N\C(=O)c1c[nH]c2ncccc12` [T51, (Z)-3-(2-((1H-pyrrolo[2,3-b]pyridine-3-carbonyl)imino)thiazol-3(2H)-yl)propanoic acid], the IC50 worked out at 607 nM. For the compound `O=C(/N=c1\sccn1Cc1ccncc1)c1c[nH]c2ncccc12` [T52, (Z)—N-(3-(pyridin-4-ylmethyl)thiazol-2(3H)-ylidene)-1H-pyrrolo[2,3-b]pyridine-3-carboxamide], the IC50 worked out at 4880 nM. Still for that read-out and setting: as for `O=C(/N=c1\sccn1Cc1cccnc1)c1c[nH]c2ncccc12` [T53, (Z)—N-(3-(pyridin-3-ylmethyl)thiazol-2(3H)-ylidene)-1H-pyrrolo[2,3-b]pyridine-3-carboxamide], the figure is 1100 nM. The same measure, in the same setting: the same measure for `O=C(/N=c1\sccn1Cc1ccccn1)c1c[nH]c2ncccc12` [T54]: 11000 nM.

Regarding `O=C(/N=c1\sccn1C1CCCCC1)c1c[nH]c2ncccc12` [T57, (Z)—N-(3-cyclohexylthiazol-2(3H)-ylidene)-1H-pyrrolo[2,3-b]pyridine-3-carboxamide], the IC50 was found to be 0.5 nM. Consider `NC(=O)c1cccc(-n2ccs/c2=N\C(=O)c2c[nH]c3ncccc23)c1` [T60], for which the IC50 came to 418 nM. On the same count and under the same terms, as for `NCc1cccc(-n2ccs/c2=N\C(=O)c2c[nH]c3ncccc23)c1` [T61, (Z)—N-(3-(3-(aminomethyl)phenyl)thiazol-2(3H)-ylidene)-1H-pyrrolo[2,3-b]pyridine-3-carboxamide], the figure is 18.6 nM.

Consider `CC(C)c1cs/c(=N\C(=O)c2c[nH]c3ncccc23)n1Cc1ccccc1` [T69], for which the IC50 is 168 nM.

With `O=C(/N=c1\scc(C(F)(F)F)n1Cc1ccccc1)c1c[nH]c2ncccc12` [T71], the IC50 was 176 nM. `O=C(/N=c1\scc(CO)n1Cc1ccccc1)c1c[nH]c2ncccc12` [T72, (Z)—N-(3-benzyl-4-(hydroxymethyl)thiazol-2(3H)-ylidene)-1H-pyrrolo[2,3-b]pyridine-3-carboxamide]: the IC50 came out at 0.2 nM. On to `Cc1cs/c(=N\C(=O)c2c[nH]c3ncccc23)n1C1CCCCC1` [T74], for which the IC50 stood at 0.2 nM. Turning to `O=C(/N=c1\sccn1C1CCNCC1)c1c[nH]c2ncccc12` [T75, (Z)—N-(3-(piperidin-4-yl)thiazol-2(3H)-ylidene)-1H-pyrrolo[2,3-b]pyridine-3-carboxamide hydrochloride], the IC50 was determined as 92.5 nM. Still for that read-out and setting: the same measure for `O=C(/N=c1\sccn1C1CCOCC1)c1c[nH]c2ncccc12` [T76]: 2190 nM. Same read-out and setting: as for `CCOC(=O)c1cs/c(=N\C(=O)c2c[nH]c3ncccc23)n1Cc1ccccc1` [T79, Ethyl (2Z)-3-benzyl-2-(1H-pyrrolo[2,3-b]pyridine-3-carbonylimino)thiazole-4-carboxylate], the figure is 22 nM.

Regarding `CN(C)CCNC(=O)c1cs/c(=N\C(=O)c2c[nH]c3ncccc23)n1Cc1ccccc1` [T80, (Z)-3-Benzyl-N-[2-(dimethylamino)ethyl]-2-(1H-pyrrolo[2,3-b]pyridine-3-carbonylimino)thiazole-4-carboxamide], the IC50 came out at 82 nM.

As to `CN(C)C(=O)c1cs/c(=N\C(=O)c2c[nH]c3ncccc23)n1-c1ccccc1Cl` [T82], the IC50 worked out at 20 nM.

Staying with this assay, now noted: 2 mM ATP; read-out: LATS1_HTRF_2 mM ATP IC50.
With `Cc1ccnc2[nH]cc(C(=O)/N=c3\sccn3Cc3ccccc3)c12` [T05], the IC50 is 3260 nM. Same read-out and setting: as for `Cc1cccc(-n2ccs/c2=N\C(=O)c2c[nH]c3ncccc23)c1` [T20], the figure is 155 nM. On the same count and under the same terms, the same measure for `Cc1ccc(-n2ccs/c2=N\C(=O)c2c[nH]c3ncccc23)cc1` [T21]: 7.5 nM. Still for that read-out and setting: as for `COc1ccccc1-n1ccs/c1=N\C(=O)c1c[nH]c2ncccc12` [T22], the figure is 720 nM; as for `COc1cccc(-n2ccs/c2=N\C(=O)c2c[nH]c3ncccc23)c1` [T23], 576 nM; as for `N#Cc1ccccc1-n1ccs/c1=N\C(=O)c1c[nH]c2ncccc12` [T28], 194 nM.

`O=C(/N=c1\sccn1CC1CCOCC1)c1c[nH]c2ncccc12` [T56]: the IC50 stood at 1020 nM.

With `Cn1cc(Cn2ccs/c2=N\C(=O)c2c[nH]c3ncccc23)cn1` [T59], the IC50 stood at 6060 nM. The same measure, in the same setting: the same measure for `O=C(/N=c1\sccn1-c1ccc2c(c1)CNCC2)c1c[nH]c2ncccc12` [T62, (Z)—N-(3-(1,2,3,4-tetrahydroisoquinolin-7-yl)thiazol-2(3H)-ylidene)-1H-pyrrolo[2,3-b]pyridine-3-carboxamide]: 126 nM; for `Cn1c(Cc2ccccc2)cs/c1=N\C(=O)c1c[nH]c2ncccc12` [T64]: 7860 nM; for `O=C(/N=c1\sccn1-c1ccccc1Cl)c1c[nH]c2ncccc12` [T65]: 0.1 nM. Regarding `O=C(/N=c1\sccn1-c1cccc(Cl)c1)c1c[nH]c2ncccc12` [T66], the IC50 is 193 nM.

Turning to `CCc1cs/c(=N\C(=O)c2c[nH]c3ncccc23)n1Cc1ccccc1` [T68], the IC50 was 59.5 nM. `Cc1cs/c(=N\C(=O)c2c[nH]c3ncccc23)n1CC1CCCCC1` [T73]: the IC50 is 0.8 nM. `Cc1co/c(=N\C(=O)c2c[nH]c3ncccc23)n1Cc1ccccc1` [T77, (Z)—N-(3-benzyl-4-methyloxazol-2(3H)-ylidene)-1H-pyrrolo[2,3-b]pyridine-3-carboxamide]: the IC50 stood at 107 nM.

As to `O=C(/N=c1\occ(CO)n1Cc1ccccc1)c1c[nH]c2ncccc12` [T78, (Z)—N-(3-benzyl-4-(hydroxymethyl)oxazol-2(3H)-ylidene)-1H-pyrrolo[2,3-b]pyridine-3-carboxamide], the IC50 came out at 1.6 nM. Same read-out and setting: the same measure for `CNC(=O)c1cs/c(=N\C(=O)c2c[nH]c3ncccc23)n1-c1ccccc1Cl` [T81]: 3.67 nM.
